# Assay results: patent US4593090A, “Novel nitrosourea compounds, method for preparing same, and pharmaceutical composition containing same” (Gogo Kimura, priority 1981, dated 1986)
# Where two headings read alike, the source gives them in different places.
# What was measured:
# [1] = Diuretic activity, acute sodium loaded mouse screening test; format: in vivo, male mice; details: 50 mg/kg oral in 1% saline; for Cl^- / K^+ / Na^+: urine
# Procedure: The diuretic activity of the compounds of this invention was assayed by the diuresis screening test referred to as "acute sodium loaded mouse". This test was carried out by the following method.
# The acute sodium loaded mouse screening test was carried out by using a 10-membered group of male mice (each weighing 18 to 24 g). Test compounds were incorporated in 1% saline (NaCl) solution and orally administered in a volume of 10 ml/kg. The mice were placed in metabolic cages. Each treated group consisted of 10-members. Five members were placed in one cage. Tests were conducted by oral administrations of (A) 1% saline (NaCl) solution to the control group and (B) 1% saline (NaCl) solution containing a test compound according to this invention.
# The determination was carried out for sodium, potassium, and chlorine in each pooled urine sample. The determination of sodium and potassium was carried out by flame photometer. Chlorine was determined by chloride analysis apparatus. The analytical values of sodium, potassium, and chlorine were shown with an average mg equivalent (m Eq)/Kg/5 hours, and the diuretic activity was shown with an average urine volume (ml)/Kg/5 hours.
# Leukemia L1210 [2] = assay: Activity against Leukemia L1210, intraperitoneal, increase in life span of mice; format: in vivo, female mice (BDF1 family); details: for ED (maximum ILS) / ED30: Mus musculus, L1210, ip, ip once a day for 5 successive days; for ED (maximum ILS): daily dosage giving maximum increase of life span, read-out: O.D. (optimum dosage); for ED30: daily dosage increasing average survival days by 30%, read-out: ILS30; for Survivors after 60 days / Max. ILS % / Therapeutic ratio TR: ip; for Survivors after 60 days: 6-membered group; for Max. ILS %: 60-day observation, versus control; for Therapeutic ratio TR: O.D./ILS30
# How it was run: (§1)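 Female BDF1 mice (20 to 23 g, 6 per group) implanted ip with 1×10^5 L1210 cells; test compound given ip or orally once daily for 5 days starting 24 h later. ILS% from mean survival days vs untreated controls over 60 days; T.R. = O.D./ILS30.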
# Ehrlich acites carcinoma = assay: Growth-inhibiting effect against Ehrlich acites carcinoma; format: in vivo, male mice; details: Mus musculus, Ehrlich, 120 h, 5 days; for response vs control in vivo at 25 mg/kg: 25 mg/kg/day ip; for response vs control in vivo at 100 mg/kg: 100 mg/kg/day ip; for response vs control in vivo at 50 mg/kg: 50 mg/kg/day ip; for response vs control in vivo at 200 mg/kg: 200 mg/kg/day ip
# How it was run: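 Male mice (groups of 6) implanted intraperitoneally with 1×10^7 Ehrlich ascites cells; compounds in 1% Nikkol HCO-60 given i.p. once daily for 5 days starting 24 hrs post-implantation. Total packed cell volume measured at day 7; T/C% vs untreated group, scored - (100-66), + (65-41), ++ (40-11), +++ (10-0).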
# [3] = Acute toxicity (LD50, Behrens-Karber method); format: in vivo, ICR mice; details: mouse, in vivo, ip, mortality during 30 days
# Procedure: Test compounds, dissolved or suspended in 0.5% aqueous CMC, were each intraperitoneally administered to ICR mice in a dose of 0.1 ml per 10 g body weight. LD50 (mg/kg) value of each test compound was calculated from the mortality of mice during 30 days by the Behrens-Karber method.
# Leukemia L1210 [4] = assay: Activity against Leukemia L1210, oral, increase in life span of mice; format: in vivo, female mice (BDF1 family); details: for ED (maximum ILS) / ED30: Mus musculus, L1210, oral once a day for 5 successive days; for ED (maximum ILS): daily dosage giving maximum increase of life span, read-out: O.D. (optimum dosage); for ED30: daily dosage increasing average survival days by 30%, read-out: ILS30; for Survivors after 60 days / Max. ILS % / Therapeutic ratio TR: oral; for Survivors after 60 days: 6-membered group; for Max. ILS %: 60-day observation, versus control; for Therapeutic ratio TR: O.D./ILS30
# How it was run: as §1
SMILES,Urine volume [1],Cl^- [1],K^+ [1],Na^+ [1],ED (maximum ILS) (Leukemia L1210 [2]),ED30 (Leukemia L1210 [2]),Survivors after 60 days (Leukemia L1210 [2]),Max. ILS % (Leukemia L1210 [2]),Therapeutic ratio TR (Leukemia L1210 [2]),response vs control in vivo at 25 mg/kg (Ehrlich acites carcinoma; read-out: Activity),response vs control in vivo at 25 mg/kg (Ehrlich acites carcinoma; read-out: T/C %),response vs control in vivo at 100 mg/kg (Ehrlich acites carcinoma; read-out: Activity),response vs control in vivo at 100 mg/kg (Ehrlich acites carcinoma; read-out: T/C %),LD50 at 720 h [3],ED (maximum ILS) (Leukemia L1210 [4]),ED30 (Leukemia L1210 [4]),Survivors after 60 days (Leukemia L1210 [4]),Max. ILS % (Leukemia L1210 [4]),Therapeutic ratio TR (Leukemia L1210 [4]),further results
"CCOCCCN(C[C@H]1O[C@H](OC(C)CC)[C@H](O)[C@@H](O)[C@@H]1O)C(=O)N(CCCl)N=O (stereo partly drawn) [Compound 19, 3-(3-ethoxy-n-propyl)-3-(sec-butyl α-D-glucopyranose-6-yl)-1-(2-chloroethyl)-1-nitrosourea]",9.1 ml/kg/5 hrs.,0.7 mEq/kg/5 hrs.,0.8 mEq/kg/5 hrs.,0.6 mEq/kg/5 hrs.,180 mg/kg,3.33 mg/kg,6/6,> 700%,54.0,0 to 10%,0%,0 to 10%,0%,560 mg/kg,–,–,–,–,–,–
"CC(C)(C)N(C[C@H]1O[C@H](OCCN2CCOCC2)[C@H](O)[C@@H](O)[C@@H]1O)C(=O)N(CCCl)N=O [Compound 181, 3-tert-butyl-3-(2-morpholinoethyl α-D-glucopyranose-6-yl)-1-(2-chloroethyl)-1-nitrosourea]",13.1 ml/kg/5 hrs.,1.3 mEq/kg/5 hrs.,1.2 mEq/kg/5 hrs.,1.1 mEq/kg/5 hrs.,160 mg/kg,2.89 mg/kg,6/6,> 700%,55.4,0 to 10%,0%,0 to 10%,0%,530 mg/kg,–,–,–,–,–,–
"CCCCO[C@@H]1O[C@H](CN(C)C(=O)N(CCCl)N=O)[C@@H](O)[C@H](O)[C@H]1O [Compound 4, 3-methyl-3-(n-butyl β-D-glucopyranose-6-yl)-1-(2-chloroethyl)-1-nitrosourea]",8.6 ml/kg/5 hrs.,0.6 mEq/kg/5 hrs.,0.9 mEq/kg/5 hrs.,0.5 mEq/kg/5 hrs.,80 mg/kg,2.7 mg/kg,6/6,> 700%,29.6,–,–,–,–,220 mg/kg,–,–,–,–,–,response vs control in vivo at 50 mg/kg (Ehrlich acites carcinoma; read-out: Activity): 11 to 40%; response vs control in vivo at 50 mg/kg (Ehrlich acites carcinoma; read-out: T/C %): 30.2%; response vs control in vivo at 200 mg/kg (Ehrlich acites carcinoma; read-out: Activity): 0 to 10%; response vs control in vivo at 200 mg/kg (Ehrlich acites carcinoma; read-out: T/C %): 2.3%
"COCCN(C[C@H]1O[C@H](OC(C)COC)[C@H](O)[C@@H](O)[C@@H]1O)C(=O)N(CCCl)N=O (stereo partly drawn) [Compound 35, 3-(2-methoxyethyl)-3-(1-methyl-2-methoxyethyl α-D-glucopyranose-6-yl)-1-(2-chloroethyl)-1-nitrosourea]",8.8 ml/kg/5 hrs.,0.6 mEq/kg/5 hrs.,0.9 mEq/kg/5 hrs.,0.5 mEq/kg/5 hrs.,150 mg/kg,2.23 mg/kg,6/6,> 700%,67.3,0 to 10%,0%,0 to 10%,0%,470 mg/kg,–,–,–,–,–,–
"CC(C)CO[C@@H]1O[C@H](CN(C(=O)N(CCCl)N=O)C(C)(C)C)[C@@H](O)[C@H](O)[C@H]1O [Compound 175, 3-tert-butyl-3-(isobutyl β-D-glucopyranose-6-yl)-1-(2-chloroethyl)-1-nitrosourea]",9.4 ml/kg/5 hrs.,0.8 mEq/kg/5 hrs.,0.9 mEq/kg/5 hrs.,0.6 mEq/kg/5 hrs.,170 mg/kg,3.33 mg/kg,6/6,> 700%,51.0,–,–,–,–,550 mg/kg,–,–,–,–,–,–
"CCOCCO[C@H]1O[C@H](CN(CC(C)C)C(=O)N(CCCl)N=O)[C@H](O)[C@H](O)[C@H]1O [Compound 114, 3-isobutyl-3-(2-ethoxyethyl α-D-galactopyranose-6-yl)-1-(2-chloroethyl)-1-nitrosourea]",–,–,–,–,180 mg/kg,2.86 mg/kg,6/6,> 700%,62.9,0 to 10%,0%,0 to 10%,0%,580 mg/kg,210 mg/kg,9.05 mg/kg,6/6,> 700%,23.2,–
"CCCCO[C@H]1O[C@H](CO)[C@H](N(C(=O)N(CCCl)N=O)C(C)COC)[C@H](O)[C@H]1O (stereo partly drawn) [Compound 132, 3-(1-methyl-2-methoxyethyl)-3-(n-butyl α-D-galactopyranose-4-yl)-1-(2-chloroethyl)-1-nitrosourea]",–,–,–,–,160 mg/kg,3.86 mg/kg,4/6,> 420%,41.5,0 to 10%,0%,0 to 10%,0%,550 mg/kg,200 mg/kg,14 mg/kg,3/6,> 345%,14.3,–
"COCCCN(C[C@H]1O[C@H](OCC(C)C)[C@H](O)[C@H]1O)C(=O)N(CCCl)N=O [Compound 164, 3-(3-methoxy-n-propyl)-3-(isobutyl α-D-xylofuranose-5-yl)-1-(2-chloroethyl)-1-nitrosourea]",–,–,–,–,160 mg/kg,2.72 mg/kg,6/6,> 700%,58.8,0 to 10%,0%,0 to 10%,0%,520 mg/kg,185 mg/kg,14.5 mg/kg,5/6,> 620%,12.8,–
